Source: the supplement of paper PMC10307832

What was measured:
Test in all cases: relative viability (nuclei count vs DMSO), 5 days (fraction); higher = more cells survive
CAP-232 + Dasatinib = compound: C[C@H]([C@@H](C(=O)N)NC(=O)[C@@H]1CSSC[C@@H](C(=O)N[C@H](C(=O)N[C@@H](C(=O)N[C@H](C(=O)N1)CCCCN)CC2=CNC3=CC=CC=C32)CC4=CC=C(C=C4)O)NC(=O)[C@@H](CC5=CC=CC=C5)N)O [CAP-232] + Cc1nc(Nc2ncc(C(=O)Nc3c(C)cccc3Cl)s2)cc(N2CCN(CCO)CC2)n1 [Dasatinib] (partner 0.075 µM)
In short: (§1)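 Relative viability equals treated-well nuclei counts divided by vehicle-well nuclei counts. Counts came from 4× images of lung cancer cell lines grown in 1536-well plates for 5 days after pin-tool dosing on the day after seeding. Dosing used one drug alone or a fixed anchor-drug dose plus five library-drug doses (not always all listed) in √10 steps, and values are medians of duplicate plates.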

CAP-232 + Pictilisib = compound: C[C@H]([C@@H](C(=O)N)NC(=O)[C@@H]1CSSC[C@@H](C(=O)N[C@H](C(=O)N[C@@H](C(=O)N[C@H](C(=O)N1)CCCCN)CC2=CNC3=CC=CC=C32)CC4=CC=C(C=C4)O)NC(=O)[C@@H](CC5=CC=CC=C5)N)O [CAP-232] + CS(=O)(=O)N1CCN(Cc2cc3nc(-c4cccc5[nH]ncc45)nc(N4CCOCC4)c3s2)CC1 [Pictilisib] (partner 1 µM)
In short: as §1

CAP-232 + Alpelisib = compound: C[C@H]([C@@H](C(=O)N)NC(=O)[C@@H]1CSSC[C@@H](C(=O)N[C@H](C(=O)N[C@@H](C(=O)N[C@H](C(=O)N1)CCCCN)CC2=CNC3=CC=CC=C32)CC4=CC=C(C=C4)O)NC(=O)[C@@H](CC5=CC=CC=C5)N)O [CAP-232] + Cc1nc(NC(=O)N2CCC[C@H]2C(N)=O)sc1-c1ccnc(C(C)(C)C(F)(F)F)c1 [Alpelisib] (partner 2 µM)
In short: as §1

CAP-232 + Phenformin = compound: C[C@H]([C@@H](C(=O)N)NC(=O)[C@@H]1CSSC[C@@H](C(=O)N[C@H](C(=O)N[C@@H](C(=O)N[C@H](C(=O)N1)CCCCN)CC2=CNC3=CC=CC=C32)CC4=CC=C(C=C4)O)NC(=O)[C@@H](CC5=CC=CC=C5)N)O [CAP-232] + N=C(N)NC(=N)NCCc1ccccc1 [Phenformin] (partner 250 µM)
In short: as §1

CAP-232 + Lapatinib = compound: C[C@H]([C@@H](C(=O)N)NC(=O)[C@@H]1CSSC[C@@H](C(=O)N[C@H](C(=O)N[C@@H](C(=O)N[C@H](C(=O)N1)CCCCN)CC2=CNC3=CC=CC=C32)CC4=CC=C(C=C4)O)NC(=O)[C@@H](CC5=CC=CC=C5)N)O [CAP-232] + CS(=O)(=O)CCNCc1ccc(-c2ccc3ncnc(Nc4ccc(OCc5cccc(F)c5)c(Cl)c4)c3c2)o1 [Lapatinib] (partner 2 µM)
In short: as §1

| Cell Line | relative viability (CAP-232 + Dasatinib; first compound 0.4 µM) | relative viability (CAP-232 + Dasatinib; first compound 1.265 µM) | relative viability (CAP-232 + Dasatinib; first compound 4 µM) | relative viability (CAP-232 + Dasatinib; first compound 12.65 µM) | relative viability (CAP-232 + Pictilisib; first compound 0.4 µM) | relative viability (CAP-232 + Pictilisib; first compound 1.265 µM) | relative viability (CAP-232 + Pictilisib; first compound 4 µM) | relative viability (CAP-232 + Pictilisib; first compound 12.65 µM) | relative viability (CAP-232 + Alpelisib; first compound 0.4 µM) | relative viability (CAP-232 + Alpelisib; first compound 1.265 µM) | relative viability (CAP-232 + Alpelisib; first compound 4 µM) | relative viability (CAP-232 + Alpelisib; first compound 12.65 µM) | relative viability (CAP-232 + Phenformin; first compound 0.4 µM) | relative viability (CAP-232 + Phenformin; first compound 1.265 µM) | relative viability (CAP-232 + Phenformin; first compound 4 µM) | relative viability (CAP-232 + Phenformin; first compound 12.65 µM) | relative viability (CAP-232 + Lapatinib; first compound 0.4 µM) | relative viability (CAP-232 + Lapatinib; first compound 1.265 µM) | relative viability (CAP-232 + Lapatinib; first compound 4 µM) | relative viability (CAP-232 + Lapatinib; first compound 12.65 µM) |
| --- | --- | --- | --- | --- | --- | --- | --- | --- | --- | --- | --- | --- | --- | --- | --- | --- | --- | --- | --- | --- |
| LU99A | 0.769 | 0.493 | 0.675 | 0.492 | 0.376 | 0.307 | 0.328 | 0.292 | 0.515 | 0.517 | 0.471 | 0.497 | 0.866 | 0.751 | 0.839 | 0.8 | 0.964 | 1.03 | 1.13 | 1.05 |
| LXF-289 | 0.224 | 0.194 | 0.238 | 0.21 | 0.817 | 0.768 | 0.755 | 0.798 | 1.13 | 1.08 | 1.1 | 1.02 | 0.508 | 0.519 | 0.512 | 0.554 | 0.952 | 0.903 | 0.914 | 0.953 |
| NCI-H23 | 0.714 | 0.609 | 0.891 | 0.844 | 0.405 | 0.491 | 0.504 | 0.462 | 0.848 | 0.743 | 0.714 | 0.668 | 0.84 | 0.813 | 0.833 | 0.678 | 0.949 | 1.03 | 1.07 | 0.828 |
| NCI-H322M | 0.275 | 0.237 | 0.256 | 0.34 | 0.54 | 0.556 | 0.519 | 0.487 | 0.778 | 0.753 | 0.709 | 0.755 | 0.873 | 0.709 | 0.759 | 0.862 | 0.558 | 0.492 | 0.69 | 0.589 |
| NCI-H358 | 0.183 | 0.151 | 0.124 | 0.179 | 0.28 | 0.301 | 0.298 | 0.402 | 0.508 | 0.821 | 0.868 | 0.789 | 0.319 | 0.295 | 0.278 | 0.315 | 0.395 | 0.393 | 0.436 | 0.445 |
| NCI-H460 | 0.704 | 0.478 | 0.581 | 0.419 | 0.328 | 0.306 | 0.433 | 0.349 | 0.512 | 0.541 | 0.595 | 0.211 | 0.634 | 0.529 | 0.567 | 0.307 | 1.11 | 1.02 | 1.62 | 0.773 |
| NCI-H520 | 0.189 | 0.193 | 0.251 | 0.201 | 0.379 | 0.315 | 0.314 | 0.25 | 0.945 | 0.93 | 1.08 | 0.568 | 0.529 | 0.52 | 0.619 | 0.461 | 0.961 | 0.858 | 0.965 | 0.684 |
| NCI-H596 | 0.502 | 0.615 | 0.536 | 0.615 | 0.421 | 0.388 | 0.36 | 0.328 | 0.558 | 0.512 | 0.497 | 0.507 | 0.679 | 0.604 | 0.899 | 0.653 | 1.13 | 1.03 | 1.01 | 0.974 |
| NCI-H647 | 0.259 | 0.155 | 0.179 | 0.125 | 0.431 | 0.354 | 0.482 | 0.365 | 1.18 | 1.16 | 1.37 | 0.761 | 0.434 | 0.561 | 0.637 | 0.401 | 1.07 | 1.14 | 1.39 | 0.469 |
| NCI-H650 | 0.509 | 0.426 | 0.521 | 0.417 | 0.84 | 0.821 | 1.06 | 0.564 | 0.997 | 1.3 | 0.997 | 0.825 | 0.443 | 0.416 | 0.472 | 0.413 | 1.17 | 0.879 | 0.966 | 0.958 |
| NCI-H661 | 0.971 | 0.663 | 0.96 | 0.648 | 0.402 | 0.377 | 0.416 | 0.389 | 0.594 | 0.382 | 0.913 | 0.596 | 0.262 | 0.268 | 0.278 | 0.227 | 0.496 | 0.592 | 0.465 | 0.344 |
| NCI-H727 | 0.301 | 0.362 | 0.38 | 0.335 | – | 0.346 | 0.361 | 0.28 | – | 0.59 | 0.633 | 0.59 | 0.511 | 0.488 | 0.536 | 0.533 | – | 0.792 | 0.826 | 0.719 |
| NCI-H838 | 0.364 | 0.249 | 0.403 | 0.25 | 0.439 | 0.357 | 0.475 | 0.345 | 1.08 | 0.944 | 1.12 | 0.644 | 0.609 | 0.53 | 0.593 | 0.537 | 0.976 | 0.974 | 1.14 | 0.499 |
| NCI-H1355 | 0.847 | 0.736 | 0.618 | 0.5 | 0.365 | 0.464 | 0.497 | 0.521 | 0.845 | 0.842 | 0.963 | 0.864 | 0.517 | 0.467 | 0.43 | 0.418 | 1.11 | 1.06 | 1.19 | 1.01 |
